In BindingDB's records for doi:10.1021/jm9901125 (Sapienza University of Rome, 2000) one finds IC50 data, which are given here for eleven compounds.

This experiment addresses T1, Gag-Pol polyprotein [588-1027]/[588-1147] (Human immunodeficiency virus 1, UniProt P04585).
T1 construct: 588-1027; 588-1147
Put plainly: HIV-1 RT Assay. As to conditions: pH 7.8; 37 °C.
`CCOC(=O)c1cccn1S(=O)(=O)c1cc(Cl)ccc1-n1cccc1` [Ethyl 1-{[5-Chloro-2-(1H-pyrrol-1-yl)phenyl]sulfonyl}-1H-pyrrole-2-carboxylate]: the half-maximal inhibitory concentration (IC50) (usually the midpoint of a concentration-inhibition curve) was above 100000 nM.
As to `CCOC(=O)c1cc(C(C)O)cn1S(=O)(=O)c1cc(Cl)ccc1N` (stereo unspecified) [ethyl 1-[(2-amino-5-chlorobenzene)sulfonyl]-4-(1-hydroxyethyl)-1H-pyrrole-2-carboxylate], the IC50 amounted to 170 nM. That is a sub-micromolar value.
Then `CCOC(=O)c1cc(CO)cn1S(=O)(=O)c1cc(Cl)ccc1N` [ethyl 1-[(2-amino-5-chlorobenzene)sulfonyl]-4-(hydroxymethyl)-1H-pyrrole-2-carboxylate], with 50 nM.
Then `CCOC(=O)c1cc(COC)cn1S(=O)(=O)c1cc(Cl)ccc1N` [ethyl 1-[(2-amino-5-chlorobenzene)sulfonyl]-4-(methoxymethyl)-1H-pyrrole-2-carboxylate], with 600 nM.
As to `CCOC(=O)c1cc(COc2ccccc2)cn1S(=O)(=O)c1cc(Cl)ccc1N` [ethyl 1-[(2-amino-5-chlorobenzene)sulfonyl]-4-(phenoxymethyl)-1H-pyrrole-2-carboxylate], inhibition was half-maximal at 600 nM (IC50).
The result for `CCOC(=O)c1cc(CNc2ccccc2)cn1S(=O)(=O)c1cc(Cl)ccc1N` [ethyl 1-[(2-amino-5-chlorobenzene)sulfonyl]-4-[(phenylamino)methyl]-1H-pyrrole-2-carboxylate] reads 500 nM; that for `C=Cc1cc(C(=O)OCC)n(S(=O)(=O)c2cc(Cl)ccc2N)c1` [ethyl 1-[(2-amino-5-chlorobenzene)sulfonyl]-4-ethenyl-1H-pyrrole-2-carboxylate], 280 nM; that for `CCOC(=O)c1cc(C)cn1S(=O)(=O)c1cc(Cl)ccc1N` [ethyl 1-[(2-amino-5-chlorobenzene)sulfonyl]-4-methyl-1H-pyrrole-2-carboxylate], 80 nM.
Then `CCOC(=O)c1cccn1S(=O)(=O)c1c(N)cccc1Cl` [ethyl 1-[(2-amino-6-chlorobenzene)sulfonyl]-1H-pyrrole-2-carboxylate], with above 100000 nM.
As to `CC(C)OC(=O)c1cc(CO)cn1S(=O)(=O)c1cc(Cl)ccc1N` [propan-2-yl 1-[(2-amino-5-chlorobenzene)sulfonyl]-4-(hydroxymethyl)-1H-pyrrole-2-carboxylate], the half-maximal inhibitory concentration (IC50) amounted to 110 nM. In other words, the sub-micromolar range.
The result for `CC(C)OC(=O)c1cc(CNc2ccccc2)cn1S(=O)(=O)c1cc(Cl)ccc1N` [propan-2-yl 1-[(2-amino-5-chlorobenzene)sulfonyl]-4-[(phenylamino)methyl]-1H-pyrrole-2-carboxylate] reads 300 nM.
